Source: PubChem BioAssay (NCI)
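Values below derive from 48-hour exposures of cells grown in 96-well plates, with endpoints linearly interpolated between the two concentrations bracketing the appropriate inhibition level. Definition used: TGI = concentration required for complete inhibition of growth.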

How the values were obtained:
Test in all cases: NCI-60 cell line screen, 48 h
A549 NSCLC = test system: A549 NSCLC
CAKI-1 renal = test system: CAKI-1 renal
COLO 205 colon = test system: COLO 205 colon
DU-145 prostate = test system: DU-145 prostate
HCT-116 colon = test system: HCT-116 colon
HL-60(TB) leukemia = test system: HL-60(TB) leukemia
HT29 colon = test system: HT29 colon
IGROV1 ovarian = test system: IGROV1 ovarian
KM12 colon = test system: KM12 colon
LOX IMVI melanoma = test system: LOX IMVI melanoma
MDA-MB-231 breast = test system: MDA-MB-231 breast
MDA-MB-435 = test system: MDA-MB-435
NCI-H522 lung = test system: NCI-H522 lung
OVCAR-3 ovarian = test system: OVCAR-3 ovarian
PC-3 prostate = test system: PC-3 prostate
RXF 393 renal = test system: RXF 393 renal
SK-MEL-2 melanoma = test system: SK-MEL-2 melanoma
SW-620 colon = test system: SW-620 colon
T-47D breast = test system: T-47D breast
UACC-257 melanoma = test system: UACC-257 melanoma

## C/C=N\n1c(C)c(C#N)c(C#N)c1N
A549 NSCLC
  TGI: > 100 µM
CAKI-1 renal
  TGI: > 100 µM
COLO 205 colon
  TGI: > 100 µM
DU-145 prostate
  TGI: > 100 µM
HCT-116 colon
  TGI: > 100 µM
HL-60(TB) leukemia
  TGI: > 100 µM
HT29 colon
  TGI: > 100 µM
IGROV1 ovarian
  TGI: > 100 µM
KM12 colon
  TGI: > 100 µM
LOX IMVI melanoma
  TGI: > 100 µM
MDA-MB-231 breast
  TGI: > 100 µM
MDA-MB-435
  TGI: > 100 µM
NCI-H522 lung
  TGI: > 100 µM
OVCAR-3 ovarian
  TGI: > 100 µM
PC-3 prostate
  TGI: > 100 µM
RXF 393 renal
  TGI: > 100 µM
SK-MEL-2 melanoma
  TGI: > 100 µM
SW-620 colon
  TGI: > 100 µM
T-47D breast
  TGI: > 100 µM
UACC-257 melanoma
  TGI: > 100 µM

## CC1OC(OC2C(CO)OC(O[C@H]3CC[C@@]4(C)C(=CC[C@H]5[C@@H]6C[C@@H]7O[C@](O)(CC[C@H](C)COC8OC(CO)C(O)C(O)C8O)[C@@H](C)[C@@H]7[C@@]6(C)CC[C@@H]54)C3)C(OC3OC(C)C(O)C(O)C3O)C2O)C(O)C(O)C1O (stereo partly drawn)
A549 NSCLC
  TGI: 5.55 µM
CAKI-1 renal
  TGI: 3.61 µM
COLO 205 colon
  TGI: > 35.5 µM
DU-145 prostate
  TGI: 5.92 µM
HCT-116 colon
  TGI: > 32.1 µM
HL-60(TB) leukemia
  TGI: > 100 µM
HT29 colon
  TGI: > 100 µM
IGROV1 ovarian
  TGI: 23.1 µM
KM12 colon
  TGI: 5.69 µM
LOX IMVI melanoma
  TGI: 4.9 µM
MDA-MB-231 breast
  TGI: 30.8 µM
MDA-MB-435
  TGI: 7.03 µM
NCI-H522 lung
  TGI: 7.53 µM
OVCAR-3 ovarian
  TGI: > 29.3 µM
PC-3 prostate
  TGI: 15.9 µM
RXF 393 renal
  TGI: 98.7 µM
SK-MEL-2 melanoma
  TGI: 20 µM
SW-620 colon
  TGI: 4.02 µM
T-47D breast
  TGI: 17 µM
UACC-257 melanoma
  TGI: > 49.9 µM

## C=C(C)[C@@H]1CCC2=C[C@H](OC2=O)[C@@]2(C)C[C@@H]2C(=O)/C=C(/C)C(=O)[C@H]1OC(C)=O
A549 NSCLC
  TGI: > 71.9 µM
CAKI-1 renal
  TGI: 42 µM
COLO 205 colon
  TGI: 45.3 µM
DU-145 prostate
  TGI: 21 µM
HCT-116 colon
  TGI: 20.3 µM
HL-60(TB) leukemia
  TGI: > 100 µM
HT29 colon
  TGI: > 48.4 µM
IGROV1 ovarian
  TGI: > 69.3 µM
KM12 colon
  TGI: 42 µM
LOX IMVI melanoma
  TGI: 41.3 µM
MDA-MB-231 breast
  TGI: > 100 µM
MDA-MB-435
  TGI: > 65.2 µM
NCI-H522 lung
  TGI: 17.1 µM
OVCAR-3 ovarian
  TGI: > 50.8 µM
PC-3 prostate
  TGI: > 46.1 µM
RXF 393 renal
  TGI: > 48 µM
SK-MEL-2 melanoma
  TGI: > 80.1 µM
SW-620 colon
  TGI: > 44.6 µM
T-47D breast
  TGI: 26.1 µM
UACC-257 melanoma
  TGI: 81.4 µM

## COC(=O)C1(Cc2cccc(C)c2)Cc2c(C)cccc2C1=O (stereo not drawn)
A549 NSCLC
  TGI: > 100 µM
CAKI-1 renal
  TGI: > 100 µM
COLO 205 colon
  TGI: > 100 µM
DU-145 prostate
  TGI: > 100 µM
HCT-116 colon
  TGI: > 100 µM
HL-60(TB) leukemia
  TGI: > 100 µM
HT29 colon
  TGI: 89.7 µM
IGROV1 ovarian
  TGI: > 100 µM
KM12 colon
  TGI: > 100 µM
LOX IMVI melanoma
  TGI: > 100 µM
MDA-MB-231 breast
  TGI: > 100 µM
MDA-MB-435
  TGI: 41.3 µM
NCI-H522 lung
  TGI: 73.3 µM
OVCAR-3 ovarian
  TGI: > 100 µM
PC-3 prostate
  TGI: > 100 µM
RXF 393 renal
  TGI: > 100 µM
SK-MEL-2 melanoma
  TGI: > 100 µM
SW-620 colon
  TGI: > 100 µM
T-47D breast
  TGI: > 100 µM
UACC-257 melanoma
  TGI: > 100 µM

## Cn1c(=O)cc(N=Nc2ccc(Cl)c(Cl)c2)[nH]c1=O
A549 NSCLC
  TGI: > 100 µM
CAKI-1 renal
  TGI: 28.5 µM
COLO 205 colon
  TGI: 60.5 µM
DU-145 prostate
  TGI: > 100 µM
HCT-116 colon
  TGI: 59.6 µM
HL-60(TB) leukemia
  TGI: 50.7 µM
HT29 colon
  TGI: 38.6 µM
IGROV1 ovarian
  TGI: > 100 µM
KM12 colon
  TGI: > 100 µM
LOX IMVI melanoma
  TGI: 34.3 µM
MDA-MB-231 breast
  TGI: 45.3 µM
MDA-MB-435
  TGI: 40.5 µM
NCI-H522 lung
  TGI: 49.4 µM
OVCAR-3 ovarian
  TGI: 33.2 µM
PC-3 prostate
  TGI: 56.1 µM
RXF 393 renal
  TGI: 63.6 µM
SK-MEL-2 melanoma
  TGI: 45.2 µM
SW-620 colon
  TGI: 58.9 µM
T-47D breast
  TGI: > 100 µM
UACC-257 melanoma
  TGI: 65.9 µM

## CC1=NN(C(=O)CC(=O)Nc2cccc(C)c2)C(=O)C1N=Nc1ccc(S(=O)(=O)c2ccc(N=NC3C(=O)N(C(=O)CC(=O)Nc4cccc(C)c4)N=C3C)cc2)cc1 (stereo not drawn)
A549 NSCLC
  TGI: > 100 µM
CAKI-1 renal
  TGI: > 100 µM
COLO 205 colon
  TGI: > 100 µM
DU-145 prostate
  TGI: > 100 µM
HCT-116 colon
  TGI: > 100 µM
HL-60(TB) leukemia
  TGI: > 100 µM
HT29 colon
  TGI: > 100 µM
IGROV1 ovarian
  TGI: > 100 µM
KM12 colon
  TGI: > 100 µM
LOX IMVI melanoma
  TGI: > 100 µM
MDA-MB-231 breast
  TGI: > 100 µM
MDA-MB-435
  TGI: > 100 µM
NCI-H522 lung
  TGI: > 100 µM
OVCAR-3 ovarian
  TGI: > 100 µM
PC-3 prostate
  TGI: > 100 µM
RXF 393 renal
  TGI: > 100 µM
SK-MEL-2 melanoma
  TGI: > 100 µM
SW-620 colon
  TGI: > 100 µM
T-47D breast
  TGI: > 100 µM
UACC-257 melanoma
  TGI: > 100 µM

## CCCC(=O)NC(C(=O)OCC)(N1CCOCC1)C(F)(F)F (stereo not drawn)
A549 NSCLC
  TGI: > 100 µM
CAKI-1 renal
  TGI: > 100 µM
COLO 205 colon
  TGI: > 100 µM
DU-145 prostate
  TGI: > 100 µM
HCT-116 colon
  TGI: > 100 µM
HL-60(TB) leukemia
  TGI: > 100 µM
HT29 colon
  TGI: > 100 µM
IGROV1 ovarian
  TGI: > 100 µM
KM12 colon
  TGI: > 100 µM
LOX IMVI melanoma
  TGI: > 100 µM
MDA-MB-231 breast
  TGI: > 100 µM
MDA-MB-435
  TGI: > 100 µM
NCI-H522 lung
  TGI: > 100 µM
OVCAR-3 ovarian
  TGI: > 100 µM
PC-3 prostate
  TGI: > 100 µM
RXF 393 renal
  TGI: > 100 µM
SK-MEL-2 melanoma
  TGI: > 100 µM
SW-620 colon
  TGI: > 100 µM
T-47D breast
  TGI: > 100 µM
UACC-257 melanoma
  TGI: > 100 µM

## COc1cc([C@H]2CC(=O)C[C@@H](c3cc(OC)c(OC)c(OC)c3)C23C(=O)c2ccccc2C3=O)cc(OC)c1OC
A549 NSCLC
  TGI: > 100 µM
CAKI-1 renal
  TGI: > 100 µM
COLO 205 colon
  TGI: > 100 µM
DU-145 prostate
  TGI: > 100 µM
HCT-116 colon
  TGI: > 100 µM
HL-60(TB) leukemia
  TGI: > 100 µM
HT29 colon
  TGI: > 100 µM
IGROV1 ovarian
  TGI: > 100 µM
KM12 colon
  TGI: > 100 µM
LOX IMVI melanoma
  TGI: > 100 µM
MDA-MB-231 breast
  TGI: > 100 µM
MDA-MB-435
  TGI: > 100 µM
NCI-H522 lung
  TGI: > 100 µM
OVCAR-3 ovarian
  TGI: > 100 µM
PC-3 prostate
  TGI: > 100 µM
RXF 393 renal
  TGI: > 100 µM
SK-MEL-2 melanoma
  TGI: > 100 µM
SW-620 colon
  TGI: > 100 µM
T-47D breast
  TGI: > 100 µM
UACC-257 melanoma
  TGI: > 100 µM

## Cc1ccc([N+](=O)[O-])cc1S(=O)(=O)Nc1ccc(C2=NN(C(=O)c3ccccc3)C(c3cccs3)C2)cc1 (stereo not drawn)
A549 NSCLC
  TGI: > 100 µM
CAKI-1 renal
  TGI: > 100 µM
COLO 205 colon
  TGI: 32.8 µM
DU-145 prostate
  TGI: > 100 µM
HCT-116 colon
  TGI: > 100 µM
HL-60(TB) leukemia
  TGI: > 100 µM
HT29 colon
  TGI: > 100 µM
IGROV1 ovarian
  TGI: > 100 µM
KM12 colon
  TGI: > 100 µM
LOX IMVI melanoma
  TGI: > 100 µM
MDA-MB-231 breast
  TGI: 44 µM
MDA-MB-435
  TGI: > 100 µM
NCI-H522 lung
  TGI: 70.8 µM
OVCAR-3 ovarian
  TGI: 45.5 µM
PC-3 prostate
  TGI: > 100 µM
RXF 393 renal
  TGI: 56.8 µM
SK-MEL-2 melanoma
  TGI: 39.5 µM
SW-620 colon
  TGI: > 100 µM
T-47D breast
  TGI: 84.2 µM
UACC-257 melanoma
  TGI: 72.9 µM

## COc1ccc2nc3cc([N+](=O)[O-])ccc3c(Nc3ccc(S(=O)(=O)N=C(N)N)cc3)c2c1
A549 NSCLC
  TGI: > 100 µM
CAKI-1 renal
  TGI: > 100 µM
COLO 205 colon
  TGI: 70.6 µM
DU-145 prostate
  TGI: > 100 µM
HCT-116 colon
  TGI: 80.5 µM
HL-60(TB) leukemia
  TGI: 31.3 µM
HT29 colon
  TGI: > 100 µM
KM12 colon
  TGI: 57.5 µM
LOX IMVI melanoma
  TGI: > 100 µM
MDA-MB-231 breast
  TGI: > 100 µM
MDA-MB-435
  TGI: > 100 µM
NCI-H522 lung
  TGI: 41.3 µM
OVCAR-3 ovarian
  TGI: 72.6 µM
PC-3 prostate
  TGI: > 100 µM
RXF 393 renal
  TGI: > 100 µM
SK-MEL-2 melanoma
  TGI: 44.4 µM
SW-620 colon
  TGI: > 100 µM
T-47D breast
  TGI: 88.7 µM
UACC-257 melanoma
  TGI: > 100 µM

## CC(C)[Si](OC1=C(c2ccccc2)C(NC(=O)/C=C/c2ccc([N+](=O)[O-])cc2)CCC1)(C(C)C)C(C)C (stereo not drawn)
A549 NSCLC
  TGI: > 100 µM
COLO 205 colon
  TGI: > 100 µM
DU-145 prostate
  TGI: > 100 µM
HCT-116 colon
  TGI: > 100 µM
HL-60(TB) leukemia
  TGI: > 100 µM
HT29 colon
  TGI: > 100 µM
IGROV1 ovarian
  TGI: > 100 µM
KM12 colon
  TGI: > 100 µM
LOX IMVI melanoma
  TGI: > 100 µM
MDA-MB-231 breast
  TGI: > 100 µM
MDA-MB-435
  TGI: > 100 µM
NCI-H522 lung
  TGI: > 100 µM
OVCAR-3 ovarian
  TGI: > 100 µM
PC-3 prostate
  TGI: > 100 µM
RXF 393 renal
  TGI: > 100 µM
SK-MEL-2 melanoma
  TGI: > 100 µM
SW-620 colon
  TGI: > 100 µM
T-47D breast
  TGI: > 100 µM
UACC-257 melanoma
  TGI: > 100 µM
